Read-outs that look alike come from different tables or passages of the source.
Legend:
[1] = target: T1, human neurokinin 1 (NK1) receptor (Homo sapiens, UniProt P25103); experiment: Neurokinin Receptor Binding Assay, NK1
T1 construct: expressed in transfected cells; host or cells: Chinese Hamster ovary (CHO) cells
Description: (§1) Neurokinin Receptor Binding Assay(s)
(§2) Chinese Hamster ovary (CHO) cells transfected with the coding regions for the human neurokinin 1 (NK1) of the human neurokinin 2 (NK2) receptors are grown in Dulbecco's minimal essential medium supplemented with 10% fetal calf serum, 0.1 mM non-essential amino acids, 2 mM glutamine, 100units/ml of penicillin and streptomycin, and 0.8 mg of G418/ml at 37° C. in a humidified atmosphere containing 5% CO2.
(§3) Cells are detached from T-175 flasks with a sterile solution containing 5 mM EDTA in phosphate buffered saline. Cells are harvested by centrifugation and washed in RPMl media at […] for 5 minutes. The pellet is resuspended inTris-HCl (pH7.4) containing 1 uM phsphoramidon and 4 ug/ml of chymostatin at a cell density of 30×10^6 cells/ml. The suspension is then homogenized in a Brinkman Polytron (setting 5) for 30-45 seconds. The homogenate is centrifuged at 800×g for 5 min at 4° C. to collect unbroken cells and nuclei. The supernatant is centrifuged in a Sorvall RC5C at 19,000 rpm ([…]) for 30 min at 4° C. The pellet is resuspended, an aliquot is removed for a protein determination (BCA) and washed again. The resulting pellet is stored at -80° C.
(§4) To assay receptor binding, 50 μl of [^3 H]-Substance P (9-Sar, 11 -Met) (specific activity 41 Ci/mmol) (Dupont-NEN) (0.8 nM for the NK-1 assay) or [^3 H]-Neurokinin A (specific activity 114 Ci/mmole) (Zenca) (1.0 nM for the NK-2 assay) is added to tubes containing buffer (50 mM Tris-HCl (pH 7.4) with 1 mM MnCl2 and 0.2% Bovine Serum Albumin) and either DMSO or test compound. Binding is initiated by the addition of 100 μl of membrane (10-20 μg) containing the human NK-1 or NK-2 receptor in a final volume of 200 μl. After 40 minutes at room temperature, the reaction is stopped by rapid filtration onto Whatman GF/C filters which have been presoaked in 0.3% polyethylenimine. Filters are washed 2 times with 3 ml of 50 mM Tris-HCl (pH7.4). Filters are added to 6 mIs of Ready-Safe liquid scintillation cocktail and quantified by liquid scintillation spectrometry in a LKB 1219 RackBeta counter. Non-specific binding is determined by the addition of either 1 μM of CP-99994 (NK-1) or 1 μM SR-48968 (NK-2) (both synthesized by the chemistry department of Schering-Plough Research Institute). IC50 values are determined from competition binding curves and Ki values are determined according to Cheng and Prusoff using the experimentally determined value of 0.8 nM for the NK-1 receptor and 2.4 nM for the NK-2 receptor.
(§5) % Inhibition is the difference between the percent of maximum specific binding (MSB) and 100%. The percent of MSB is defined by the following equation, wherein "dpm" is disintegrations per minute: [formula]

[2] = target: T2, human neurokinin 2 (NK2) receptor (Homo sapiens, UniProt P21452); experiment: Neurokinin Receptor Binding Assay, NK2; conditions: for inhibition at 1 µM: read-out: % Inhibition NK2 (1 μM dose)
T2 construct: expressed in transfected cells; host or cells: Chinese Hamster ovary (CHO) cells
T2 sequence (P21452 1-398): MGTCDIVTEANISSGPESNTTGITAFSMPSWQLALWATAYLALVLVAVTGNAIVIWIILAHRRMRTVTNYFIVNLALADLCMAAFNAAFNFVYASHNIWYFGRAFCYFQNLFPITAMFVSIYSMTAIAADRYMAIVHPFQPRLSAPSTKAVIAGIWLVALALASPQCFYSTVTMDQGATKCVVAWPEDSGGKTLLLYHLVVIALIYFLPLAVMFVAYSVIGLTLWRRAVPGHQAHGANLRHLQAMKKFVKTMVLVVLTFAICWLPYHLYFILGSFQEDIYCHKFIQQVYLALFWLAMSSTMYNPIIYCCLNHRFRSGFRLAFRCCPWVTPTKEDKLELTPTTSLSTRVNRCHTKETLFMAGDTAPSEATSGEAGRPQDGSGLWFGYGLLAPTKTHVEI
Description: as §1, §2, §3, §4, §5

NK3 = target: T3, NK3 (Homo sapiens, UniProt P29371); experiment: NK3 activity (procedure similar to literature); type: binding
T3 sequence (P29371 1-465): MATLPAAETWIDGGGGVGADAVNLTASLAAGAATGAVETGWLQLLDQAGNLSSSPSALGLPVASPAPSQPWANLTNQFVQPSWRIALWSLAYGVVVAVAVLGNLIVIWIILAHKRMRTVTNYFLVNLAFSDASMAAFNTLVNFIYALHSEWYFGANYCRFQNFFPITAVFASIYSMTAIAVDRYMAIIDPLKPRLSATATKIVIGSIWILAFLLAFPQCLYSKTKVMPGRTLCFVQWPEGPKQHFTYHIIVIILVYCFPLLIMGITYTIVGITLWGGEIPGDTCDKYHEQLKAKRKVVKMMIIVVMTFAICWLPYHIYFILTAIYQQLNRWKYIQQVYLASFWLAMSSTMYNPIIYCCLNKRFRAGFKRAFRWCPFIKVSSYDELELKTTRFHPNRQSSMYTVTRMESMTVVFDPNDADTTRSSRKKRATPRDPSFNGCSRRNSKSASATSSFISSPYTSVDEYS
Description: NK3 activity is determined by following a procedure similar to that described in the literature, e.g., Molecular PharmacoL, 48 (1995), p. 711-716.

[3] = [3H]-Substance P, CHO cell membranes
[4] = 1 μM dose, [3H]-Neurokinin A, CHO cell membranes
[5] = [3H]-Substance P, CHO cell membranes, read-out: Ki (NK1)
[6] = [3H]-Neurokinin A, CHO cell membranes, read-out: Ki (NK2)

T1 sequence (P25103 whole entry): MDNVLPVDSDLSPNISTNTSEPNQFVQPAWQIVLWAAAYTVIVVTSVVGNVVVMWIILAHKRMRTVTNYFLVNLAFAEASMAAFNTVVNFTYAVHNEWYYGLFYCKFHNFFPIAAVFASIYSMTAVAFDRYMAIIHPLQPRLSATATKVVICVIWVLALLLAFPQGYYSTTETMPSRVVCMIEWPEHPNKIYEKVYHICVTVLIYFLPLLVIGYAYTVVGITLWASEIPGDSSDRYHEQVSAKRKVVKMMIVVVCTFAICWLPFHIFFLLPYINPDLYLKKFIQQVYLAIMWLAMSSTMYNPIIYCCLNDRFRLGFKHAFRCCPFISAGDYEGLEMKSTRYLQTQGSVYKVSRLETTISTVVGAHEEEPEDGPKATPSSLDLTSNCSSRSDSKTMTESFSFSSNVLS

Compound | inhibition at 1 µM [1, 3] | inhibition at 1 µM [2, 4] | Ki [1] | Ki [2] | inhibition at 1 µM [2] | Ki (NK3) | Ki [1, 5] | Ki [2, 6]
OC1(c2ccccc2)CCN(CCC(C(COCc2cc(C(F)(F)F)cc(C(F)(F)F)c2)=NOCc2ccccc2)c2ccc(Cl)c(Cl)c2)CC1 (stereo not shown) [Example 1C] | 44% | 16% | – | – | – | – | – | –
CON=C(COCc1cc(C(F)(F)F)cc(C(F)(F)F)c1)C(CCN1CCC(O)(c2ccccc2)CC1)c1ccc(Cl)c(Cl)c1 (stereo not shown) [Example 1] | 88% | – | 0.025 µM | 0.02 µM | 95% | 0.109 µM | – | –
CCOC(=O)C=C(COCc1cc(C(F)(F)F)cc(C(F)(F)F)c1)C(CCN1CCC(O)(c2ccccc2)CC1)c1ccc(Cl)c(Cl)c1 (stereo not shown) [Example 2] | 69% | 17% | – | – | – | – | 0.04 µM | –
CN1CCN(N=C(COCc2cc(C(F)(F)F)cc(C(F)(F)F)c2)C(CCN2CCC(O)(c3ccccc3)CC2)c2ccc(Cl)c(Cl)c2)CC1 (stereo not shown) [Example 7] | 69% | 13% | – | – | – | – | 0.121 µM | –
CON=C(COCc1cccc(C)c1F)C(CCN1CCC(O)(c2ccccc2)CC1)c1ccc(Cl)c(Cl)c1 (stereo not shown) [Example 22AK] | 67% | 95% | – | – | – | – | 0.132 µM | 0.002 µM
CON=C(COCc1noc(C(C)(C)C)n1)C(CCN1CCC(O)(c2ccccc2)CC1)c1ccc(Cl)c(Cl)c1 (stereo not shown) [Example 22AL] | 12% | 100% | – | – | – | – | – | 0.002 µM
OCCN(CC=C(COCc1cc(C(F)(F)F)cc(C(F)(F)F)c1)C(CCN1CCC(O)(c2ccccc2)CC1)c1ccc(Cl)c(Cl)c1)CCO (stereo not shown) [Example 35C] | 93% | 0% | – | – | – | – | 0.002 µM | –
NC(CON=C(COCc1cc(C(F)(F)F)cc(C(F)(F)F)c1)C(CCN1CCC(N2CCCCC2)CC1)c1ccc(Cl)c(Cl)c1)=NO (stereo not shown) [Example 39F] | 93% | 96% | – | – | – | – | 0.0043 µM | 0.012 µM
CON=C(COCc1cc(C(F)(F)F)cc(C(F)(F)F)c1)C(CCN1CCC(C(=O)N2CCCC2)CC1)c1ccc(Cl)c(Cl)c1 (stereo not shown) [Example 42L] | 91% | 86% | – | – | – | – | 0.0046 µM | 0.123 µM

Source: patent publication US5840725A, “Substituted oximes, hydrazones and olefins as neurokinin antagonists” (Schering Corporation, priority 1997, dated 1998)
